Experimental data taken from patent publication US20240158446A1, “CYCLIC COMPOUND HAVING SELECTIVE INHIBITORY ACTION ON KRAS OVER HRAS AND NRAS” (CHUGAI SEIYAKU KABUSHIKI KAISHA, priority 2021, published 2024).

Assays:
[1] = target: GDP-bound KRAS wild-type protein (Homo sapiens, UniProt P01116); experiment: Binding to KRAS by surface plasmon resonance (SPR), Single Cycle Kinetics; settings: SPR, Single Cycle Kinetics, GDP-bound KRAS wild-type protein; read-out: KRAS KD
[2] = target: GDP-bound NRAS wild-type protein (Homo sapiens, UniProt P01111); experiment: Binding to NRAS by surface plasmon resonance (SPR), Single Cycle Kinetics; settings: SPR, GDP-bound NRAS wild-type protein vs GDP-bound KRAS wild-type protein
Chain of GDP-bound NRAS wild-type protein (P01111 whole entry): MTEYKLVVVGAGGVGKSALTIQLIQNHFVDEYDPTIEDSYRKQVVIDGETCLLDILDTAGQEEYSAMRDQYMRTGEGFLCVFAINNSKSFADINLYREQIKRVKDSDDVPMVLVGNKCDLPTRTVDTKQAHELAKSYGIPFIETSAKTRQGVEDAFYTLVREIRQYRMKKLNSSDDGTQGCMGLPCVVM

[3] = target: GDP-bound HRAS wild-type protein (Homo sapiens, UniProt P01112); experiment: Binding to HRAS by surface plasmon resonance (SPR), Single Cycle Kinetics; settings: SPR, GDP-bound HRAS wild-type protein vs GDP-bound KRAS wild-type protein
Chain of GDP-bound HRAS wild-type protein (P01112 whole entry): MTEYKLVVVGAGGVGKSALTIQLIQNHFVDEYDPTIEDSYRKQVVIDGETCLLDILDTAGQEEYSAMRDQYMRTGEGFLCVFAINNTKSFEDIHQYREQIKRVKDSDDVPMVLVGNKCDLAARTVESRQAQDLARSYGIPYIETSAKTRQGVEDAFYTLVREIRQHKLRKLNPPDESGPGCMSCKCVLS

[4] = system: human lung cancer strain NCI-H441;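 also: cell proliferation inhibition after four days measured by CellTiter-Glo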

Chain of GDP-bound KRAS wild-type protein (P01116 whole entry): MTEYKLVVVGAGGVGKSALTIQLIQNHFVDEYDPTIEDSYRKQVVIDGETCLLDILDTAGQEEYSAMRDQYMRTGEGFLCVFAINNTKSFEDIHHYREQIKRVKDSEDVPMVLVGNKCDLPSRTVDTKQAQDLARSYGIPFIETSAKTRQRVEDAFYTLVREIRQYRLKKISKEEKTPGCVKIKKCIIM

Compound | Kd [1] | NRAS/KRAS (ratio of KD value for NRAS to KD value for KRAS) [2] | HRAS/KRAS (ratio of KD value for HRAS to KD value for KRAS) [3] | IC50 [4]
CCC(CC)[C@H]1C(=O)N(C)[C@H](C(=O)N(C)C)CC(=O)N(C)[C@@H](COC)C(=O)N[C@@H]([C@@H](C)CC)C(=O)N(C)CC(=O)N(C)[C@H]2C/C=C\CCN(C2=O)[C@@H](CC2CCC(F)(F)CC2)C(=O)N(C)CC(=O)N[C@@H](CCc2ccc(C(F)(F)F)c(OC)c2)C(=O)N2C[C@@H](C)C[C@H]2C(=O)NC2(CC(C)(C)C2)C(=O)N1C [PP2442] | 0.97 nM | A (a compound having 10 or more and less than 20 is denoted as A) | A (a compound having 10 or more and less than 20 is denoted as A) | 79.7 nM
CCO[C@@H]1C[C@H]2C(=O)NC3(CC(C)(C)C3)C(=O)N(C)[C@@H](C(CC)CC)C(=O)N(C)[C@H](C(=O)N(C)C)CC(=O)N(C)[C@@H](COC)C(=O)N[C@@H]([C@@H](C)CC)C(=O)N(C)CC(=O)N(C)[C@H]3C/C=C\CCN(C3=O)[C@@H](CC3CCC(F)(F)CC3)C(=O)N(C)CC(=O)N[C@@H](CCc3ccc(C(F)(F)F)c(Cl)c3)C(=O)N2C1 [PP2444] | 0.59 nM | A (a compound having 10 or more and less than 20 is denoted as A) | A (a compound having 10 or more and less than 20 is denoted as A) | 32.3 nM
CCOC[C@H]1C(=O)N[C@@H]([C@@H](C)CC)C(=O)N(C)CC(=O)N(C)[C@H]2C/C=C\CCN(C2=O)[C@@H](Cc2ccc(C)cc2)C(=O)N(C)CC(=O)N[C@@H](CCc2ccc(C(F)(F)F)c(OC)c2)C(=O)N2C[C@H](OCC)C[C@H]2C(=O)NC2(CC(C)(C)C2)C(=O)N(C)[C@@H](C2CCCC2)C(=O)N(C)[C@H](C(=O)N(C)CC)CC(=O)N1C [PP2445] | 0.14 nM | A (a compound having 10 or more and less than 20 is denoted as A) | B (a compound having 3 or more and less than 10 is denoted as B) | 11.7 nM
CCOC[C@H]1C(=O)N[C@@H]([C@@H](C)CC)C(=O)N(C)CC(=O)N(C)[C@H]2C/C=C\CCN(C2=O)[C@@H](CC2CCC(F)(F)CC2)C(=O)N(C)CC(=O)N[C@@H](CCc2ccc(C(F)(F)F)c(OC)c2)C(=O)N2C[C@H](OCC)C[C@H]2C(=O)NC2(CC(C)(C)C2)C(=O)N(C)[C@@H](C(CC)CC)C(=O)N(C)[C@H](C(=O)N(C)C)CC(=O)N1C [PP2446] | 0.81 nM | A (a compound having 10 or more and less than 20 is denoted as A) | A (a compound having 10 or more and less than 20 is denoted as A) | 124 nM
CCCOC[C@H]1C(=O)N[C@@H]([C@@H](C)CC)C(=O)N(C)CC(=O)N(C)[C@H]2C/C=C\CCN(C2=O)[C@@H](Cc2ccc(C)cc2)C(=O)N(C)CC(=O)N[C@@H](CCc2ccc(C(F)(F)F)c(OC)c2)C(=O)N2C[C@@H](C)C[C@H]2C(=O)NC2(CC(C)(C)C2)C(=O)N(C)[C@@H](C2CCCC2)C(=O)N(C)[C@H](C(=O)N(C)C)CC(=O)N1C [PP2447] | 0.11 nM | A (a compound having 10 or more and less than 20 is denoted as A) | B (a compound having 3 or more and less than 10 is denoted as B) | 8.6 nM
CCC(CC)[C@H]1C(=O)N(C)[C@H](C(=O)N(C)C)CC(=O)N(C)[C@@H](COC)C(=O)N[C@@H]([C@@H](C)CC)C(=O)N(C)CC(=O)N(C)[C@H]2C/C=C\CCN(C2=O)[C@@H](CC2CCC(F)(F)CC2)C(=O)N(C)CC(=O)N[C@@H](CCc2cc(F)c(C(F)(F)F)c(F)c2)C(=O)N2C[C@@H](C)C[C@H]2C(=O)NC2(CC(C)(C)C2)C(=O)N1C [PP2448] | 1.4 nM | A (a compound having 10 or more and less than 20 is denoted as A) | A (a compound having 10 or more and less than 20 is denoted as A) | 26.9 nM
CCCOC[C@H]1C(=O)N[C@@H]([C@@H](C)CC)C(=O)N(C)CC(=O)N(C)[C@H]2C/C=C\CCN(C2=O)[C@@H](Cc2ccc(C)cc2)C(=O)N(C)CC(=O)N[C@@H](CCc2ccc(C(F)(F)F)c(OC)c2)C(=O)N2C[C@H](OCC)C[C@H]2C(=O)NC2(CC(C)(C)C2)C(=O)N(C)[C@@H](C2CCCC2)C(=O)N(C)[C@H](C(=O)N(C)C)CC(=O)N1C [PP2449] | 0.061 nM | A (a compound having 10 or more and less than 20 is denoted as A) | A (a compound having 10 or more and less than 20 is denoted as A) | 7.8 nM
CCOC[C@H]1C(=O)N[C@@H]([C@@H](C)CC)C(=O)N(C)CC(=O)N(C)[C@H]2C/C=C\CCN(C2=O)[C@@H](CC2CCC(F)(F)CC2)C(=O)N(C)CC(=O)N[C@@H](CCc2cc(F)c(C(F)(F)F)c(F)c2)C(=O)N2C[C@H](OCC)C[C@H]2C(=O)NC2(CC(C)(C)C2)C(=O)N(C)[C@@H](C(CC)CC)C(=O)N(C)[C@H](C(=O)N(C)C)CC(=O)N1C [PP2450] | 0.55 nM | A (a compound having 10 or more and less than 20 is denoted as A) | A (a compound having 10 or more and less than 20 is denoted as A) | 29.2 nM
CCOC[C@H]1C(=O)N[C@@H]([C@@H](C)CC)C(=O)N(C)CC(=O)N(C)[C@H]2C/C=C\CCN(C2=O)[C@@H](Cc2ccc(C)cc2)C(=O)N(C)CC(=O)N[C@@H](CCc2ccc(C(F)(F)F)c(Cl)c2)C(=O)N2C[C@@H](C)C[C@H]2C(=O)NC2(CC(C)(C)C2)C(=O)N(C)[C@@H](C2CCCC2)C(=O)N(C)[C@H](C(=O)N(C)CC)CC(=O)N1C [PP2451] | 0.17 nM | A (a compound having 10 or more and less than 20 is denoted as A) | A (a compound having 10 or more and less than 20 is denoted as A) | 8.6 nM
CCO[C@@H]1C[C@H]2C(=O)NC3(CC(C)(C)C3)C(=O)N(C)[C@@H](C(CC)CC)C(=O)N(C)[C@H](C(=O)N(C)C)CC(=O)N(C)[C@@H](COC)C(=O)N[C@@H]([C@@H](C)CC)C(=O)N(C)CC(=O)N(C)[C@H]3C/C=C\CCN(C3=O)[C@@H](CC3CCCCC3)C(=O)N(C)CC(=O)N[C@@H](CCc3ccc(C(F)(F)F)c(OC)c3)C(=O)N2C1 [PP2452] | 1.5 nM | A (a compound having 10 or more and less than 20 is denoted as A) | A (a compound having 10 or more and less than 20 is denoted as A) | 43.4 nM
CCCOC[C@H]1C(=O)N[C@@H]([C@@H](C)CC)C(=O)N(C)CC(=O)N(C)[C@H]2C/C=C\CCN(C2=O)[C@@H](Cc2ccc(C)cc2)C(=O)N(C)CC(=O)N[C@@H](CCc2ccc(C(F)(F)F)c(Cl)c2)C(=O)N2C[C@@H](C)C[C@H]2C(=O)NC2(CC(C)(C)C2)C(=O)N(C)[C@@H](C2CCCC2)C(=O)N(C)[C@H](C(=O)N(C)C)CC(=O)N1C [PP2453] | 0.09 nM | A (a compound having 10 or more and less than 20 is denoted as A) | A (a compound having 10 or more and less than 20 is denoted as A) | 9.2 nM
CCC(CC)[C@H]1C(=O)N(C)[C@H](C(=O)N(C)C)CC(=O)N(C)[C@@H](COC)C(=O)N[C@@H]([C@@H](C)CC)C(=O)N(C)CC(=O)N(C)[C@H]2C/C=C\CCN(C2=O)[C@@H](CC2CCC(F)(F)CC2)C(=O)N(C)CC(=O)N[C@@H](CCc2ccc(C(F)(F)F)c(Cl)c2)C(=O)N2C[C@@H](C)C[C@H]2C(=O)NC2(CC(C)(C)C2)C(=O)N1C [PP2454] | 1.2 nM | AA (a compound having 20 or more is denoted as AA) | A (a compound having 10 or more and less than 20 is denoted as A) | 80.2 nM
CC[C@H](C)[C@@H]1NC(=O)[C@H](COC)N(C)C(=O)C[C@@H](C(=O)N(CC)CC)N(C)C(=O)[C@H](C2CCCC2)N(C)C(=O)C2(CC(C)(C)C2)NC(=O)[C@@H]2C[C@H](C)CN2C(=O)[C@H](CCc2cc(F)c(C(F)(F)F)c(F)c2)NC(=O)CN(C)C(=O)[C@H](Cc2ccc(C)cc2)N2CC/C=C\C[C@@H](C2=O)N(C)C(=O)CN(C)C1=O [PP2455] | 0.32 nM | AA (a compound having 20 or more is denoted as AA) | A (a compound having 10 or more and less than 20 is denoted as A) | 23.4 nM
CCO[C@@H]1C[C@H]2C(=O)NC3(CC(C)(C)C3)C(=O)N(C)[C@@H](C(CC)CC)C(=O)N(C)[C@H](C(=O)N(C)C)CC(=O)N(C)[C@@H](COC)C(=O)N[C@@H]([C@@H](C)CC)C(=O)N(C)CC(=O)N(C)[C@H]3C/C=C\CCN(C3=O)[C@@H](CC3CCCCC3)C(=O)N(C)CC(=O)N[C@@H](CCc3cc(F)c(C(F)(F)F)c(F)c3)C(=O)N2C1 [PP2456] | 1.1 nM | A (a compound having 10 or more and less than 20 is denoted as A) | A (a compound having 10 or more and less than 20 is denoted as A) | 18.8 nM
